Test results as given in US20140342065A1 (priority 2012, published 2014).

What was measured:
[1] = system: freshly cut pears and peaches; test: NaHS solution fumigation of freshly cut pears and peaches
Description: (§1) Aqueous NaHS solutions (0.25-3.5 mmol/L) could release H2S gas (10^−12˜10^−10 mol/L). H2S rapidly, reached to the highest levels within several minutes and maintained a constant concentration. […] The NaHS solution was renewed every 48 or 72 hours. The NaHS solution was placed in a sealed container separated by a partition board with pores on it. The fresh cut vegetables including Broccoli, Lettuce, Lotus Root, Yam, Pumpkin, Sweet Potato, Potato, etc, and the fresh cut fruits Apple, Pear, Kiwi Fruit, Tomato, Hami Melon, and Peach were placed above the board, while the NaHS solution was placed under the board. Therefore, the fresh cut vegetables and fruits were fumigated with H2S gas released from NaHS in the solution.
The control of freshly cut pears and peaches that were treated with water (0.0 mml/L NaHS), lost their edibility on day 2, while the shelf life of freshly cut pear and peach treated with 0.5 mmol/L-2.0 mmol/L NaHS solution was prolonged by 1-2 days. […] The control freshly cut pears and peaches treated with 0.0 mmol/L NaHS solution underwent rot process (due to physiological senescence and microbe infection) in 2.5 days, and the moldy rate reached 100% in 4 days.

[2] = system: freshly cut chips of lettuce and lotus roots; test: NaHS solution fumigation of freshly cut chips of lettuce and lotus roots
Description: as §1
The control freshly cut chips of lettuce and lotus roots that were treated with water (0.0 mmol/L NaHS) lost their water and edibility after 15-24 hours, while the freshness of freshly cut chips of lettuce and lotus roots treated with 0.1 mmol/L-1.0 mmol/L NaHS solution was prolonged by 12-18 hours.

[3] = system: freshly cut yams, sweet potatoes and potatoes; test: NaHS solution fumigation of freshly cut yams, sweet potatoes and potatoes
Description: as §1
The control freshly cut yams, sweet potatoes and potatoes that were treated with water (0.0 mmol/L NaHS) underwent browning at 10˜12 hours, while the browning time of freshly cut yams, sweet potatoes and potatoes treated with 0.25-1.75 mmol/L NaHS solution was postponed by about 15-20 hours.

freshly cut broccoli = test: NaHS solution fumigation of freshly cut broccoli
Description: as §1
The controls of fresh cut broccoli that were treated with water (0.0 mmol/L NaHS) solution lost their edibility on day 3, while the shelf life of freshly cut broccoli treated with 0.25 mmol/L-1.75 mmol/L NaHS solution was prolonged by 2-3 days. […] The control of freshly cut broccoli treated with 0.0 mmol/L NaHS solution underwent rot process (due to physiological senescence and microbe infection) at 4 days, and the moldy rate reached 100%. In contrast, the treatment with 1.5 mmol/L H2S donor, NaHS, inhibited the infection by micro-organisms, and no infection appeared until day 9.

[4] = system: Mollusks, bees, grasshopper, drosophila, butterflies, and flies; settings: in vivo
Description: First, it can be used in a closed space for the growth of crop and to protect the crop by its insecticidal, fungicidal, rodenticidal, pediculicidal, and biocidal actions.

[5] = Release of H2S gas from aqueous NaHS solutions; assay type: physicochemical; settings: aqueous NaHS solutions 0.25-3.5 mmol/L
Description: as §1

bacteria or yeast = settings: exposed one day (NaHS 50 mg, gas 40 ppm or saturated water 0.04% 1 ml), then sealed two months at room temperature
Excerpt: Control counterparts were also kept at room temperature within a closed environment. Then, the plates were removed from these environments, sealed and placed at room temperature for two months.

freshly cut tomatoes = test: NaHS solution fumigation of freshly cut tomatoes at breaker stage
Description: as §1
The control freshly cut tomatoes that were treated with water (0.0 mmol/L NaHS) gradually turned red, and reached 100% maturation on day 5, while the maturation time of freshly cut tomatoes treated with 0.5 mmol/L-3.5 mmol/L NaHS solution was prolonged by 4-5 days.

freshly cut Kiwi fruits = test: NaHS solution fumigation of freshly cut Kiwi fruits
Description: as §1
The control freshly cut Kiwi fruits that were treated with water (0.0 mmol/L NaHS) lost their color and their edibility completely on day 4, while the shelf life of freshly cut Kiwi fruits treated with 0.25 mmol/L-1.75 mmol/L NaHS solution was prolonged by 2-3 days. […] The control freshly cut Kiwi fruits treated with 0.0 mmol/L NaHS solution underwent rot process in 5 days, and the rot rate reached 100% in 7 days.

## S [NaHS, sodium hydrosulfide]
[1]; 0.5 mmol/L-2.0 mmol/L NaHS, control lost edibility on day 2
  shelf life prolonged by: 1 to 2 days
[1]; 1.5 mmol/L NaHS (best)
  shelf life prolonged by: 2 days
[1]; 1.5-2.0 mmol/L NaHS
  day until which micro-organisms did not appear: 5 days
[1]; 1.5-2.0 mmol/L NaHS, after 10 days, control 100% in 4 days
  moldy rate: 80%
[2]; 0.1 mmol/L-1.0 mmol/L NaHS, control lost water and edibility after 15-24 hours
  freshness prolonged by: 12 to 18 h
[2]; 0.8 mmol/L-1.0 mmol/L NaHS (best)
  freshness prolonged by: 18 h
[3]; 0.25-1.75 mmol/L NaHS, control browning at 10˜12 hours
  browning time postponed by: 15 to 20 h
[3]; 1.0-1.5 mmol/L NaHS (most optimal)
  browning time postponed by: 16 to 20 h
Freshly cut broccoli; 0.25 mmol/L-1.75 mmol/L NaHS, control lost edibility on day 3
  shelf life prolonged by: 2 to 3 days
Freshly cut broccoli; 1.5 mmol/L NaHS (most optimal)
  shelf life prolonged by: 3 days
Freshly cut broccoli; 1.5 mmol/L NaHS, control moldy rate 100% at 4 days
  day until which no infection by micro-organisms appeared: 9 days
[4]
  death of pests: die within seconds
[5]
  H2S gas released: 10^−12˜10^−10 mol/L
Bacteria or yeast
  growth of bacteria and yeast on agar plates: no growth was evident
Freshly cut tomatoes; 0.5 mmol/L-3.5 mmol/L NaHS, control 100% maturation on day 5
  maturation time prolonged by: 4 to 5 days
Freshly cut tomatoes; 1.5 mmol/L-2.0 mmol/L NaHS (best)
  senescence time prolonged by: 5 days
Freshly cut Kiwi fruits; 0.25 mmol/L-1.75 mmol/L NaHS, control lost edibility on day 4
  shelf life prolonged by: 2 to 3 days
Freshly cut Kiwi fruits; 1.5 mmol/L NaHS (best)
  shelf life prolonged by: 2 days
Freshly cut Kiwi fruits; 1.5 mmol/L NaHS, control rot rate 100% in 7 days
  day until which micro-organisms did not appear: 10 days
